Activity calls are given as the source filed them. No cut-off for these calls is given here.
Experiments:
Rattus norvegicus [1] = assay: Antinociceptive activity in zymosan-induced rat model of thermal nociceptive hypersensitivity assessed as nociceptive response inhibition at 240 mg/kg, ig administered once daily for 7 days and measured 1 hr post-zymosan challenge on day 7 by hot-plate test (reference value: -42.4%); type: functional; settings: po, 168 h, time 7 day
[2] = Hepatotoxicity in zymosan-induced rat arthritis model assessed as change in hepatocyte cytoplasmic appearance at 240 mg/kg, ig administered once daily for 7 days by hematoxylin-eosin staining based histological analysis; type: toxicity, organism-based, Liver; settings: in vivo, po, 168 h, time 7 day
[3] = Hepatotoxicity in zymosan-induced rat arthritis model assessed as change in shape of liver central veins at 240 mg/kg, ig administered once daily for 7 days by hematoxylin-eosin staining based histological analysis; type: toxicity, organism-based; settings: in vivo, po, 168 h, time 7 day
[4] = Hepatotoxicity in zymosan-induced rat arthritis model assessed as change in shape of liver portal tracts at 240 mg/kg, ig administered once daily for 7 days by hematoxylin-eosin staining based histological analysis; type: toxicity, organism-based; settings: in vivo, po, 168 h, time 7 day
[5] = Hepatotoxicity in zymosan-induced rat arthritis model assessed as effect on sinusoids arrangement at 240 mg/kg, ig administered once daily for 7 days by hematoxylin-eosin staining based histological analysis; type: toxicity, organism-based, Liver; settings: in vivo, po, 168 h, time 7 day
[6] = Hepatotoxicity in zymosan-induced rat arthritis model assessed as effect on sinusoids elongation at 240 mg/kg, ig administered once daily for 7 days by hematoxylin-eosin staining based histological analysis; type: toxicity, organism-based, Liver; settings: in vivo, po, 168 h, time 7 day
Rattus norvegicus [7] = assay: Antinociceptive activity in zymosan-induced rat arthritis model assessed as nociceptive response inhibition at 240 mg/kg, ig administered once daily for 7 days and measured 1 hr post-zymosan challenge on day 7 by Randall-Selitto test (reference value: -34.6%); type: functional; settings: po, 168 h, time 7 day
Rattus norvegicus [8] = assay: Antipyretic activity against LPS-induced polyphasic febrile response in rats assessed as suppression of rise in core body temperature at 240 mg/kg, po treated 40 mins prior to LPS addition and measured after 200 mins; type: functional, organism-based; settings: time 240.0 min
[9] = Hepatotoxicity in zymosan-induced rat arthritis model assessed as appearance of vacuoles in hepatocyte cytoplasm at 240 mg/kg, ig administered once daily for 7 days by hematoxylin-eosin staining based histological analysis; type: toxicity, organism-based, Liver; settings: in vivo, po, 168 h, time 7 day
[10] = Hepatotoxicity in zymosan-induced rat arthritis model assessed as change in hepatocyte nucleus size at 240 mg/kg, ig administered once daily for 7 days by hematoxylin-eosin staining based histological analysis; type: toxicity, organism-based, Liver; settings: in vivo, po, 168 h, time 7 day
[11] = Hepatotoxicity in zymosan-induced rat arthritis model assessed as effect on beam structure of liver at 240 mg/kg, ig administered once daily for 7 days by hematoxylin-eosin staining based histological analysis; type: toxicity, organism-based; settings: in vivo, po, 168 h, time 7 day
Rattus norvegicus [12] = assay: Antipyretic activity against LPS-induced polyphasic febrile response in rats assessed as change in core body temperature at 240 mg/kg, po treated 40 mins prior to LPS addition and measured after 160 mins during phase 1 (reference value: 0.85 deg C); type: functional, organism-based; settings: time 200.0 min
[13] = Hepatotoxicity in zymosan-induced rat arthritis model assessed as change in hepatocyte shape at 240 mg/kg, ig administered once daily for 7 days by hematoxylin-eosin staining based histological analysis; type: toxicity, organism-based, Liver; settings: in vivo, po, 168 h, time 7 day
Rattus norvegicus [14] = assay: Antipyretic activity against LPS-induced polyphasic febrile response in rats assessed as suppression of rise in core body temperature at 240 mg/kg, po treated 40 mins prior to LPS addition and measured after 10 mins; type: functional, organism-based; settings: time 50.0 min
Rattus norvegicus [15] = assay: Antipyretic activity against LPS-induced polyphasic febrile response in rats assessed as suppression of rise in core body temperature at 240 mg/kg, po treated 40 mins prior to LPS addition and measured after 160 mins relative to control; type: functional; settings: time 200 min, 3.333 h
[16] = Hepatotoxicity in zymosan-induced rat arthritis model assessed as disruption of hepatocyte membrane at 240 mg/kg, ig administered once daily for 7 days by hematoxylin-eosin staining based histological analysis; type: toxicity, organism-based, Liver; settings: in vivo, po, 168 h, time 7 day
[17] = Hepatotoxicity in zymosan-induced rat arthritis model assessed as change in hepatocyte karyoplasm at 240 mg/kg, ig administered once daily for 7 days by hematoxylin-eosin staining based histological analysis; type: toxicity, organism-based, Liver; settings: in vivo, po, 168 h, time 7 day
[18] = Hepatotoxicity in zymosan-induced rat arthritis model assessed as effect on general architecture of liver at 240 mg/kg, ig administered once daily for 7 days by hematoxylin-eosin staining based histological analysis; type: toxicity, organism-based; settings: in vivo, po, 168 h, time 7 day

Which inhibition in vivo at 240 mg/kg (Rattus norvegicus [1]) does the source give for `CCCCCCCCCCCCCCCC(=O)Nc1ccc(OCC(=O)NCCO)cc1` here?
Its inhibition in vivo at 240 mg/kg is 29.8%.

And the Activity [2]?
The Activity was “Non-toxic”.

And the Activity [3]?
Its Activity is “Non-toxic”.

And the Activity [4]?
The Activity was “Non-toxic”.

And the Activity [5]?
Its Activity is “Non-toxic”.

What about the Activity [6] of the same compound?
Its Activity is “Non-toxic”.

What about the inhibition in vivo at 240 mg/kg (Rattus norvegicus [7]) of the same compound?
Its inhibition in vivo at 240 mg/kg is 23.1%.

What about the Activity (Rattus norvegicus [8]) of the same compound?
Its Activity is “Active”.

What about the Activity [9] of the same compound?
The Activity was “Non-toxic”.

And the Activity [10]?
The Activity was “Non-toxic”.

What about the Activity [11] of the same compound?
Its Activity is “Non-toxic”.

And the ΔTm (Rattus norvegicus [12])?
Its ΔTm is 0.28 °C.

And the Activity [13]?
The Activity was “Non-toxic”.

What about the Activity (Rattus norvegicus [14]) of the same compound?
The Activity was “Active”.

What about the “fold change (FC)” value (Rattus norvegicus [15]) of the same compound?
Its value is 3.

What about the Activity [16] of the same compound?
Its Activity is “Non-toxic”.

What about the Activity [17] of the same compound?
Its Activity is “Non-toxic”.

What about the Activity [18] of the same compound?
The Activity was “Non-toxic”.

Source: ChEMBL document CHEMBL6114949, “Synthesis and physiological effects of new 4-aminophenol derivatives as paracetamol analogues” (Bioorg Med Chem Lett, 2025)
